Like-named read-outs stand apart in the source and are kept apart here.
Columns and labels:
Assay in all cases: biochemical
Assay type in all cases: binding
panel of 442 kinases [1] = target: T1, panel of 442 kinases (Homo sapiens, UniProt O75676)
T1 construct: purchased Ambit Biosciences (scanMAXX KINOMEscan)

panel of 442 kinases [2] = target: T2, panel of 442 kinases (Homo sapiens, UniProt P00533, L861Q); settings: EGFR(L861Q); for remaining activity at 1 µM: read-out: % of control at 1 µM
T2 construct: purchased Ambit Biosciences (scanMAXX KINOMEscan)

panel of 442 kinases [3] = target: T3, panel of 442 kinases (Homo sapiens, UniProt P29376); settings: kinase LTK; for remaining activity at 1 µM: read-out: % of control at 1 µM
T3 construct: purchased Ambit Biosciences (scanMAXX KINOMEscan)

panel of 442 kinases [4] = target: T4, panel of 442 kinases (Homo sapiens, UniProt P35916); settings: kinase FLT4; for remaining activity at 1 µM: read-out: % of control at 1 µM
T4 construct: purchased Ambit Biosciences (scanMAXX KINOMEscan)

panel of 442 kinases [5] = target: T5, panel of 442 kinases (Homo sapiens, UniProt Q00535); settings: CDK5; for remaining activity at 1 µM: read-out: % of control at 1 µM
T5 construct: purchased Ambit Biosciences (scanMAXX KINOMEscan)

panel of 442 kinases [6] = target: T6, panel of 442 kinases (Homo sapiens, UniProt Q08881); settings: kinase ITK; for remaining activity at 1 µM: read-out: % of control at 1 µM
T6 construct: purchased Ambit Biosciences (scanMAXX KINOMEscan)
T6 sequence (Q08881 1-620): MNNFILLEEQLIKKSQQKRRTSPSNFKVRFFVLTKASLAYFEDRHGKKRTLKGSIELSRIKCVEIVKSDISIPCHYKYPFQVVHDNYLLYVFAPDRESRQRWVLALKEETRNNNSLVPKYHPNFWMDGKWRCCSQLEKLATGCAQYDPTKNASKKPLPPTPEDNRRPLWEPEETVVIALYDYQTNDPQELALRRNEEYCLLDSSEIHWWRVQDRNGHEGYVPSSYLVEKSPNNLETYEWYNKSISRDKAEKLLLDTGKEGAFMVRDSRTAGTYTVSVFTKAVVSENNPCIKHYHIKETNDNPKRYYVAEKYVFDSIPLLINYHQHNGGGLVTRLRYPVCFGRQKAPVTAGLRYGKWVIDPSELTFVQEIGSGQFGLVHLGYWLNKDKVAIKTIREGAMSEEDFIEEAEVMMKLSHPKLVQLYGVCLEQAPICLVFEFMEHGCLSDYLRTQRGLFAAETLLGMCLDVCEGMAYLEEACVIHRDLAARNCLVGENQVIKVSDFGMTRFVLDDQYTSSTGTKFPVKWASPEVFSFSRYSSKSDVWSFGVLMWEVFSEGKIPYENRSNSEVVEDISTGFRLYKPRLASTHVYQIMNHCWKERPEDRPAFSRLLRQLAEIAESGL

panel of 442 kinases [7] = target: T7, panel of 442 kinases (Homo sapiens, UniProt Q16566); settings: CAMK4; for remaining activity at 1 µM: read-out: % of control at 1 µM
T7 construct: purchased Ambit Biosciences (scanMAXX KINOMEscan)
T7 sequence (Q16566 1-473): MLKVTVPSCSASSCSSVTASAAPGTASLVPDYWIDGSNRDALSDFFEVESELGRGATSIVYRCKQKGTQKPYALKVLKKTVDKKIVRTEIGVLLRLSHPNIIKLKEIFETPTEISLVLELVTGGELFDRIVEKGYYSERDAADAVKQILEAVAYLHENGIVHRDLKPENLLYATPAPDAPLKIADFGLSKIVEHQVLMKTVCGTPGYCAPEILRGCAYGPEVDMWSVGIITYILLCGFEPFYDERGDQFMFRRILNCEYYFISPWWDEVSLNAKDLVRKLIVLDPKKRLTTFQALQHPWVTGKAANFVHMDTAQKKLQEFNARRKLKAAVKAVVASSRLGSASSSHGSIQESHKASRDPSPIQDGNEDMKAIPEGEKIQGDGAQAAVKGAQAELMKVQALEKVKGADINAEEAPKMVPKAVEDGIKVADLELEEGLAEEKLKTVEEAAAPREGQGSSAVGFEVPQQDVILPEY

panel of 442 kinases [8] = target: T8, panel of 442 kinases (Homo sapiens, UniProt Q86Z02); settings: kinase HIPK1; for remaining activity at 1 µM: read-out: % of control at 1 µM
T8 construct: purchased Ambit Biosciences (scanMAXX KINOMEscan)

panel of 442 kinases [9] = target: T9, panel of 442 kinases (Homo sapiens, UniProt Q8TBX8); settings: kinase PIP5K2C; for remaining activity at 1 µM: read-out: % of control at 1 µM
T9 construct: purchased Ambit Biosciences (scanMAXX KINOMEscan)
T9 sequence (Q8TBX8 1-421): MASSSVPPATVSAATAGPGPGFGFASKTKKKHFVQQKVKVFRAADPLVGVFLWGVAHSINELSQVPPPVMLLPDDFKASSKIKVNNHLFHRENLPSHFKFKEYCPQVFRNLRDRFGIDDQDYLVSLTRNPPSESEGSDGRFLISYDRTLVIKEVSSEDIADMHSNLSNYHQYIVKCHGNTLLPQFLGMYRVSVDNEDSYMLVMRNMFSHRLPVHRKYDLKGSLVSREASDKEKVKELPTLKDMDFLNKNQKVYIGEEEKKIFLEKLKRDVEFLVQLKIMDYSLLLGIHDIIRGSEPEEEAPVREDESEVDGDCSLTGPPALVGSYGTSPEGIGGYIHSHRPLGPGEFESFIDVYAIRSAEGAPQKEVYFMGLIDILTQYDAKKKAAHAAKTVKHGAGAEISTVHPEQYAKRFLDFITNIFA

panel of 442 kinases [10] = target: T10, panel of 442 kinases (Homo sapiens, UniProt Q9UM73); settings: ALK; for remaining activity at 1 µM: read-out: % of control at 1 µM
T10 construct: purchased Ambit Biosciences (scanMAXX KINOMEscan)

[11] = kinase RPS6KA4(Kin.Dom.1-N-terminal), read-out: RPS6KA4(Kin.Dom.1-N-terminal) (% of control at 1 µM)
[12] = kinase RPS6KA4(Kin.Dom.2-C-terminal), read-out: RPS6KA4(Kin.Dom.2-C-terminal) (% of control at 1 µM)
[13] = 10 µM, read-out: % of control at 10 µM

T2 sequence (P00533 25-1210 L861Q): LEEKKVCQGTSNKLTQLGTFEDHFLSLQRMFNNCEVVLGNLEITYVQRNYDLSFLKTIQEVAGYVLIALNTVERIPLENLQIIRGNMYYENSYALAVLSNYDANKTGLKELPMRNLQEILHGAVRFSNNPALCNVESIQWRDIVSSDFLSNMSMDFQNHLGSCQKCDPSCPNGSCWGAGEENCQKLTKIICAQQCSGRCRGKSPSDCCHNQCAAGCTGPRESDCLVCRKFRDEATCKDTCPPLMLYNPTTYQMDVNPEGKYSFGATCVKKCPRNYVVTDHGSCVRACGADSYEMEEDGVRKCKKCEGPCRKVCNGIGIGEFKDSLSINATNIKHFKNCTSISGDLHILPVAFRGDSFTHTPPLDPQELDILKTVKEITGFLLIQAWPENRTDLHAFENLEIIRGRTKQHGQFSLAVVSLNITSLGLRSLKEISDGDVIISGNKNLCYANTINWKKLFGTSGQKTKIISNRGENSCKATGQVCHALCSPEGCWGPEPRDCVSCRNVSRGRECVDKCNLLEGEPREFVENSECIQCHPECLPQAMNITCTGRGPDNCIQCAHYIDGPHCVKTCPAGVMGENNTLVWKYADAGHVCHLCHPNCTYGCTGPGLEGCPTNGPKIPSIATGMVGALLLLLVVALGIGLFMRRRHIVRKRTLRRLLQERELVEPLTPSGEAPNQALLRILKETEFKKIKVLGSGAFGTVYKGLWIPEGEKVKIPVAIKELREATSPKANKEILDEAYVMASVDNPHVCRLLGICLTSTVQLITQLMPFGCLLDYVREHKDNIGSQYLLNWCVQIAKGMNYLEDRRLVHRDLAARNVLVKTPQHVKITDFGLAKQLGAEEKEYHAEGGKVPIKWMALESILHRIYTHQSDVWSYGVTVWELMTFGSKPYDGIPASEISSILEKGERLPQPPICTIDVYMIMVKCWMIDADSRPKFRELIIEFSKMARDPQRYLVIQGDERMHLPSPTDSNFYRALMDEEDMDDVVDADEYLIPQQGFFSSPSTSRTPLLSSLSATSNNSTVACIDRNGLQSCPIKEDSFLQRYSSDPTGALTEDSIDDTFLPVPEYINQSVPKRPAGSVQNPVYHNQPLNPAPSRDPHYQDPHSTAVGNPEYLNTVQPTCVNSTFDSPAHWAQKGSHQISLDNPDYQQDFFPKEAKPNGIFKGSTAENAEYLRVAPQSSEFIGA
T1 sequence (O75676 whole entry): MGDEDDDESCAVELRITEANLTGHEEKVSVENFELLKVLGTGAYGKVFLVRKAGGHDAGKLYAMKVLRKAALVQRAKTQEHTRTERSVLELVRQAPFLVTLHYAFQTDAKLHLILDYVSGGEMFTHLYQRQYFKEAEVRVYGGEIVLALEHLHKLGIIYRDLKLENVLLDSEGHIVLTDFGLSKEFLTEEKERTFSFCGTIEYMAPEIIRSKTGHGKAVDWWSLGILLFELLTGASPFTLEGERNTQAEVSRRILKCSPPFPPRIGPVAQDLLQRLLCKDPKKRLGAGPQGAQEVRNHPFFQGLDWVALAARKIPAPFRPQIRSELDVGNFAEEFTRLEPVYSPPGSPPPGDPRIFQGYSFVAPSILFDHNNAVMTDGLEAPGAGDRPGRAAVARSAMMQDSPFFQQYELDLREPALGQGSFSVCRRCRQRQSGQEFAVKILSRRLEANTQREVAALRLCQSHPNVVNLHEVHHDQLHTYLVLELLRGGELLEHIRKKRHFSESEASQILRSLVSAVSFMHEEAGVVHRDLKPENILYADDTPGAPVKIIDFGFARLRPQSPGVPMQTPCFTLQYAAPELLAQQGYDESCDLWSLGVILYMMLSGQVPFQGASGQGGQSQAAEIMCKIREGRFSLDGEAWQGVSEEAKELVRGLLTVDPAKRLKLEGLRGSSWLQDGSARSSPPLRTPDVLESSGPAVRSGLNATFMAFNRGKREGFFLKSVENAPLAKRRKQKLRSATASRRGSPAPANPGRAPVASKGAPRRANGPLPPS
T10 sequence (Q9UM73 19-1620): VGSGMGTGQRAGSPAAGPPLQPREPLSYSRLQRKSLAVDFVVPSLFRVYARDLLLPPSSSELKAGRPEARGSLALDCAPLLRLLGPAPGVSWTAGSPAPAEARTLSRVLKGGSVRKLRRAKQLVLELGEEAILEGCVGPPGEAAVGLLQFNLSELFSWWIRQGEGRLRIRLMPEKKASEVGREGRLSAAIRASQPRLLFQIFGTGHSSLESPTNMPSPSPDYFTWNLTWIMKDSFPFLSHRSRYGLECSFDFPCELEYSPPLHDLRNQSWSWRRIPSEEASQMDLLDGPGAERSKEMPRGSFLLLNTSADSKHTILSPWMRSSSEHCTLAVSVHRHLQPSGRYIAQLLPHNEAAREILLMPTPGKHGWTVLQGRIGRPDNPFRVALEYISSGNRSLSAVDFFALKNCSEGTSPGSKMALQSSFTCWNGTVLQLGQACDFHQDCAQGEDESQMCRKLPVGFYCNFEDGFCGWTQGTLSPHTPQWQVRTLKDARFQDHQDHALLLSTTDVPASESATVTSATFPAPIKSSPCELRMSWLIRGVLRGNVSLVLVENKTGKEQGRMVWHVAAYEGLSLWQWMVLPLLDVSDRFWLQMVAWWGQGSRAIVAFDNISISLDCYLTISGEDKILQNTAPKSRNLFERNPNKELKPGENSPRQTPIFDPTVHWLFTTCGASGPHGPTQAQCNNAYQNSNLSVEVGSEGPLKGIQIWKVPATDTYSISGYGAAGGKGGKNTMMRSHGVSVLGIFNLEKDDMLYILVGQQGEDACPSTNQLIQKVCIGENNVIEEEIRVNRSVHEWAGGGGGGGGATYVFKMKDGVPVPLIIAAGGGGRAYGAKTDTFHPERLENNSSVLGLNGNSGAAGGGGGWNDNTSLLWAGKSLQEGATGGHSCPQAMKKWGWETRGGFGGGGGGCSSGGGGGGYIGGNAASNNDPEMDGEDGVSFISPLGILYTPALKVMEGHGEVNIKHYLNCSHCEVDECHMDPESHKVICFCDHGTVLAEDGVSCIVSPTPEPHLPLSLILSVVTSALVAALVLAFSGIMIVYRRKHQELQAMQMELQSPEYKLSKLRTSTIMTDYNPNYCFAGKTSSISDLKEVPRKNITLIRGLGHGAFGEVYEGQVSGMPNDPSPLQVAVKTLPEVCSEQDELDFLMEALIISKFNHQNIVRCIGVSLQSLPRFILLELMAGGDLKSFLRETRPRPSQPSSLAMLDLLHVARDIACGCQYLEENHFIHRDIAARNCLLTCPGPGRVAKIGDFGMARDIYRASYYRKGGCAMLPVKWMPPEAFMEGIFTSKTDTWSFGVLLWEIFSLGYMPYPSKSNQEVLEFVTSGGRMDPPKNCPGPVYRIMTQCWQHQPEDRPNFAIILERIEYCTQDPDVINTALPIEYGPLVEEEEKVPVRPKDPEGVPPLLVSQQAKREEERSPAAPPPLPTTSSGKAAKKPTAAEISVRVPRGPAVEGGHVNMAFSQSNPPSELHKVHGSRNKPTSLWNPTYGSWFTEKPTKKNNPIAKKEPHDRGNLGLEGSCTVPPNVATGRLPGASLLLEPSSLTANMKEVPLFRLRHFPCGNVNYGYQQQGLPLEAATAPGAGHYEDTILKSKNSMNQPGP
T4 sequence (P35916 25-1363): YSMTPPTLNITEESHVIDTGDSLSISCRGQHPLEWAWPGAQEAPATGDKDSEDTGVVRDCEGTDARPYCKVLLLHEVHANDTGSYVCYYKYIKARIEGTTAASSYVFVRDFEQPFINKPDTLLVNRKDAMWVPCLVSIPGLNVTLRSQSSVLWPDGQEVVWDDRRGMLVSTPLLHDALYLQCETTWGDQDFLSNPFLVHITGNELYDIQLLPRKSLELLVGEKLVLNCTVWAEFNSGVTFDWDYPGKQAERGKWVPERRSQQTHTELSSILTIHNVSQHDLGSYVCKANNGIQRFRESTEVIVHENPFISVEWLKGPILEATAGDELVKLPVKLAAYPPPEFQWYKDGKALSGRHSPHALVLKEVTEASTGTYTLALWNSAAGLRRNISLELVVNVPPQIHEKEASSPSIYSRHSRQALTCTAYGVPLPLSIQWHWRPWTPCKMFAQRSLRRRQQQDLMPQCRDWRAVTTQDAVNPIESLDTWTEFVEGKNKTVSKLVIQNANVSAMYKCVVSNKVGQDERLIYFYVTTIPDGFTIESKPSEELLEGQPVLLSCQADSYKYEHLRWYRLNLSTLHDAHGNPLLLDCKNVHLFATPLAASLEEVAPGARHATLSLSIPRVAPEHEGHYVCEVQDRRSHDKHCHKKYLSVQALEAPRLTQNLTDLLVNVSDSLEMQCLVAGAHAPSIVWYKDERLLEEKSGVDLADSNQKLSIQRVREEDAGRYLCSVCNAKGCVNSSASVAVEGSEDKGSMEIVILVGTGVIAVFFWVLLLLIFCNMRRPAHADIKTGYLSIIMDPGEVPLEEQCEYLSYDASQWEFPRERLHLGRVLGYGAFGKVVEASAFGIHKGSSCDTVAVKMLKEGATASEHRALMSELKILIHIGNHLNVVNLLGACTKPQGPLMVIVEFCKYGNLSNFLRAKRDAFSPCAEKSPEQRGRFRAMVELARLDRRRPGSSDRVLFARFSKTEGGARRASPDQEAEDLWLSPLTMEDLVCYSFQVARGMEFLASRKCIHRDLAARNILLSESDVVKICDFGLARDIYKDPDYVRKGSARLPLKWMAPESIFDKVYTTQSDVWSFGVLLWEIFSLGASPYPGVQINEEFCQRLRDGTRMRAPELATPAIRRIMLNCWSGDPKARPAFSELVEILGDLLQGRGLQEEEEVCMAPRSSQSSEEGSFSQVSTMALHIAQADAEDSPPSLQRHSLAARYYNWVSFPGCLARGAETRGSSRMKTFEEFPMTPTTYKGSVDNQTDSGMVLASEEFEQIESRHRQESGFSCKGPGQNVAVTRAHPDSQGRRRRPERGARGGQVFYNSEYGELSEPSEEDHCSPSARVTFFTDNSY

| SMILES | remaining activity at 1 µM (panel of 442 kinases [1]; [11]) | remaining activity at 1 µM (panel of 442 kinases [1]; [12]) | remaining activity at 1 µM (panel of 442 kinases [2]) | remaining activity at 1 µM (panel of 442 kinases [3]) | remaining activity at 1 µM (panel of 442 kinases [4]) | remaining activity at 1 µM (panel of 442 kinases [5]) | remaining activity at 1 µM (panel of 442 kinases [6]) | remaining activity at 1 µM (panel of 442 kinases [7]) | remaining activity at 1 µM (panel of 442 kinases [8]) | remaining activity at 1 µM (panel of 442 kinases [9]) | remaining activity at 1 µM (panel of 442 kinases [10]) | other results |
| --- | --- | --- | --- | --- | --- | --- | --- | --- | --- | --- | --- | --- |
| Nc1cc(C(F)(F)F)c(-c2cc(N3CCOCC3)nc(N3CCOCC3)n2)cn1 [Buparlisib] | 83% | 94% | 88% | 99% | 99% | 100% | 100% | 89% | 100% | 71% | 100% | remaining activity at 10 µM (panel of 442 kinases [1]; kinase RPS6KA4(Kin.Dom.1-N-terminal), read-out: RPS6KA4(Kin.Dom.1-N-terminal) (% of control at 10 µM)): 100%; remaining activity at 10 µM (panel of 442 kinases [1]; kinase RPS6KA4(Kin.Dom.2-C-terminal), read-out: RPS6KA4(Kin.Dom.2-C-terminal) (% of control at 10 µM)): 100%; remaining activity at 10 µM (panel of 442 kinases [2]; [13]): 83%; remaining activity at 10 µM (panel of 442 kinases [3]; [13]): 100%; remaining activity at 10 µM (panel of 442 kinases [4]; [13]): 100%; remaining activity at 10 µM (panel of 442 kinases [5]; [13]): 99%; remaining activity at 10 µM (panel of 442 kinases [6]; [13]): 100%; remaining activity at 10 µM (panel of 442 kinases [7]; [13]): 100%; remaining activity at 10 µM (panel of 442 kinases [8]; [13]): 89%; remaining activity at 10 µM (panel of 442 kinases [9]; [13]): 46%; remaining activity at 10 µM (panel of 442 kinases [10]; [13]): 100% |
| Cn1c(=O)n(-c2ccc(C(C)(C)C#N)cc2)c2c3cc(-c4cnc5ccccc5c4)ccc3ncc21 [Dactolisib, 2-methyl-2-[4-(3-methyl-2-oxo-8-quinolin-3-yl-2,3-dihydroimidazo[4,5-c]quinolin-1-yl)-phenyl] propionitrile] | 100% | 100% |  | 23% | 100% | 100% | 91% |  | 72% | 89% | 72% |  |
| COc1ncc(-c2ccc3nccc(-c4ccnnc4)c3c2)cc1NS(=O)(=O)c1ccc(F)cc1F [Omipalisib] | 100% | 97% | 100% | 88% | 100% | 100% | 86% | 100% | 99% | 56% | 100% |  |
| FC(F)c1nc2ccccc2n1-c1nc(N2CCOCC2)nc(N2CCOCC2)n1 [ZSTK474, 2-(difluoromethyl)-1-[4,6-di(4-morpholinyl)-1,3,5-triazin-2-yl]-1H-benzimidazole] | 100% | 100% | 100% | 72% | 96% | 100% | 97% | 92% | 86% | 100% | 93% |  |
